5 compounds from patent EP1727814B1, “NUCLEOSIDE ANALOGUES WITH ANTIVIRAL ACTIVITY” (Universita' Degli Studi Di Catania, priority 2004, dated 2005) can be followed below.

Broadly, the inhibition is the percentage by which the read-out fell short of the control.

For assay [1], the system named is HSV-1, strain "F". The assay is described as follows: Plaque reduction assay in Vero cells. In kind it is cell-based, herpes simplex type 1 (HSV-1). The settings on record: Human alphaherpesvirus 1; HSV-1, Vero cells, 72h; read-out: EC50 (concentration capable of reducing the formation of plaques by 50%). How it is done:
(§1) To assay the activity of the compounds also towards herpes virus infections, the model for in vitro transmission of herpes simplex type 1 (HSV-1) and of herpes simplex type 2 (HSV-2) to permissive cells of the Vero cell line and plaque reduction assay were used. Vero cells were transferred and cultivated for 24h at 37°C in six-well plates for the cultures to reach confluence. After removal of the culture medium in the wells, a suspension was added containing 100 plaque forming units (PFU) of HSV-1, strain "F", or HSV-2, strain "G" in 100 µl of medium. After one hour of incubation the appropriate quantities of compounds were added diluted in culture medium with the addition of serum 2% and methylcellulose 0.8% to obtain final concentrations of the compounds ranging from 1 µM to 400 µM. The cultures were then incubated for 72h, the medium was removed from the wells and stained with crystal violet 0.8%. After removing the wash liquid, the plates were left to dry and the number of plaques was determined. Acyclovir was used as the positive reference control. A double assay was performed and the values of EC50 (concentration capable of reducing the formation of plaques by 50%) were calculated by extrapolating the mean number of plaques from the plot towards the corresponding concentrations of the compounds.
For orientation: Plaques are areas of infected cells; plaque reduction assays count them against a control.

For assay [2], the system named is HSV-2, strain "G". The experiment in a line: Plaque reduction assay in Vero cells. The settings on record: Human alphaherpesvirus 2; HSV-2, Vero cells, 72h; read-out: EC50 (concentration capable of reducing the formation of plaques by 50%). The class given is cell-based, herpes simplex type 2 (HSV-2). How it is done:
as §1

Assay [3] deals with HIV-1. The assay is described as follows: Anti-HIV activity in CEM cells, p24 ELISA in supernatant.
Procedure: The strain HIV-1 mixed with HIV-IIIB produced in chronically infected cells of lymphoid origin H-9 and therefore capable of growing the virus stably in a culture, was used to assay the anti-HIV activity. Viral inoculation was prepared by low speed centrifugation (3000 rpm) of the supernatant from the line producing the virus and by subsequent ultracentrifugation (40,000 rpm). The concentrated virus was titrated in TCID 50%/ml (units infecting 50% of the cultures). Cells from the lymphoid T-cell line, CEM, were used as cells to infect. The target cells were placed in contact with various quantities of TCID 50% of titrated virus, in an interval ranging from a MOl (multiplicity of infection) of 0.0001 and 0.1 TCID 50%/cell.
The cultures were kept for 7 days at 37°C in the presence of fetal bovine serum 2%. After 2-4 days of culture the medium was removed and replaced with fresh medium to which the compounds in question were again added.
After seven days of setting up the culture, the infection was evaluated using the ELISA method, measuring the production of HIV-1 p24 protein in the supernatant of infected cultures, treated and untreated.
The test system of assay [4] is RT of avian retrovirus. The experiment in a line: Inhibition in vitro of retroviral reverse transcriptase (cDNA synthesis, 32P incorporation, gel electrophoresis). The class given is biochemical. The settings on record: after preincubation with PBMC lysates. The text has this: In addition to the tests on cells susceptible to infection by human retroviruses, an assay was set up to highlight the capacity of the compounds A, B and C to inhibit in vitro the activity of a retroviral reverse transcriptase (RT). In short, the assay is based on the principle that starting from an RNA template, it is possible to evaluate the effect of inhibition of the capacity of the RT to synthesise cDNA, by identifying the cDNA fragment of neosynthesis, following gel electrophoretic run, thanks to incorporation of a nucleotide precursor labelled with phosphorus 32 (P32). […] As in order to be utilisable by the RT, the nucleoside analogues must be transformed into their triphosphate form, the compounds in question were placed in contact with cell protein extracts containing kinases capable of inducing phosphorylations. For this purpose protein extracts were used, obtained by lysis from a million PBMC previously stimulated in 48h of culture with PHA. The nucleoside compounds were incubated in ice for one hour with the lysates. After incubation the samples were taken to 95°C in order to inactivate the cellular enzymes present in the lysates. […]

For assay [5], the system named is HTLV-1. The assay is described as follows: Inhibition of HTLV-1 transmission to lymphomonocytes by co-cultivation (DNA-PCR, RT-PCR, Tax Western blot). In kind it is cell-based, HTLV-1 (human T lymphotropic retrovirus type 1). The settings on record: lowest concentrations (5µM and 1 µM). Here is the method: (§2) To assay the capacity to inhibit transmission, lymphomonocytes of adult peripheral blood were separated by density gradient centrifugation and then infected with HTLV-1 by co-cultivation with a chronically infected line that produces viruses, following irradiation of the donor cells (Miyoshi et al. Nature 1981, 296: 770-772).
(§3) The assayed nucleoside analogues (compounds A, B and C) were added at different concentrations at the moment of infection and the treatment was repeated at 3, 7 and 10 days from the first exposure.
The infection was monitored by verifying that the cells treated had become infected, compared to untreated controls, four weeks after infection. The infection was determined by monitoring the presence of proviral DNA and the viral RNA expression, by DNA-PCR and RT-PCR assay respectively. With these techniques it is possible to amplify and highlight the viral genome of HTLV-1 integrated into the host cell, that is virus-specific RNA-messengers, by the use of specific oligonucleotides for viral regions.
For further evaluation of the infection the viral protein expression of HTLV-1 Tax was also highlighted using Western blot analysis with specific monoclonal antibodies.
In general terms: A western blot detects proteins with antibodies after separation by electrophoresis.

In assay [6] the test system is lymphomonocytes of adult peripheral blood. The assay is described as follows: Proliferative response of infected and uninfected lymphomonocyte cultures. The class given is cell-based. The settings on record: lowest concentrations (5µM and 1 µM). How it is done:
as §2, §3
Moreover, the infected and uninfected cultures, treated or untreated with the compounds in question, were assayed to determine the proliferative response during infection, in order to verify, in addition to the antiviral effect also any antiproliferative effect with regard to the infected cultures.

Where [7] appears, read: Human immunodeficiency virus 1, CCRF-CEM, 168 h, read-out: inhibition of the production of p24 in the supernatant of infected cultures.

On to `Nc1nc2c(ncn2COCCO)c(=O)[nH]1` [acyclovir, Acyclovir, reference compound], for which the EC50 stood at 14 µM in assay [1] and 32 µM in assay [2].

As for `CCOP(=O)(CC1CC(n2cc(C)c(=O)[nH]c2=O)ON1C)OCC` (stereo not shown) [Compound B], in assay [1], the EC50 amounted to 62 µM. In addition, the EC50 in assay [2] came out at 78 µM. In assay [3] (setting [7]), the inhibition at 0.04 µM worked out at 50% and the inhibition at 0.4 µM amounted to 70%.

Consider `Cc1cn([C@H]2C[C@H](N=[N+]=[N-])[C@@H](CO)O2)c(=O)[nH]c1=O` [AZT, zidovudine, reference compound], for which, in assay [4] (0.1 and 10 µM), the “inhibition of RT activity” value is reported as “capable of inhibiting RT activity”. In assay [3] (setting [7]), the inhibition at 0.004 µM is 60%, the inhibition at 0.04 µM turned out to be 80% and the inhibition at 0.4 µM is 98%.

Take `CCOP(=O)(CC1CC(n2ccc(N)nc2=O)ON1C)OCC` (stereo not shown) [Compound A]: the EC50 in assay [1] was 48 µM. Further, the EC50 in assay [2] was 72 µM. Besides, in assay [3] (setting [7]), the inhibition at 0.04 µM was 45% and the inhibition at 0.4 µM came out at 70%.

On to `CCOP(=O)(CC1CC(n2cc(F)c(=O)[nH]c2=O)ON1C)OCC` (stereo not shown) [Compound C], for which the “protection from the infection” value in assay [5] is recorded as “total protection”. In assay [6], the antiproliferative action result is “poor or no antiproliferative action”. Besides, the “inhibition of RT activity” value in assay [4] (0.1, 1 and 20 µM) is on record as “capable of inhibiting RT activity”. Moreover, in assay [1], the EC50 is 34 µM. The EC50 in assay [2] was 56 µM. In addition, the “inhibition of the production of p24 in the supernatant of infected cultures” value in assay [3] (0.004 µM, CEM cells, 7 days) is “did not cause inhibition”. In assay [3] (setting [7]), the inhibition at 0.04 µM worked out at 60% and the inhibition at 0.4 µM worked out at 75%.
